The values that follow come from patent US20240246913A1, “2-CARBOXYL-INDOLE INHIBITORS OF METALLO-BETA-LACTAMASES” (Oxford University Innovation Limited, priority 2021, published 2024).

Each structure is given as a SMILES string. Some results are limits rather than exact numbers.

One data set addresses VIM-2 (Escherichia coli, UniProt Q5U7L7). The data set is described as follows: MBL inhibition, FC-5 fluorescence assay, VIM-2. Format: biochemical. To be noted: FC-5 cephalosporin substrate, ranges of obtained pIC50, read-out: pIC50 VIM-2 (converted). The method in brief: (§1)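 Dose-response fits (log inhibitor vs normalized response, variable slope) used initial reaction rates, each concentration in 4 replicates within the plate. Rates came from fluorophore release at ex 380/em 460 nm as the MBL hydrolyzed FC-5.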

A short description of data set [1]: Metabolic stability in human hepatocytes. Type of data set: in vitro ADME. To be noted: cryopreserved human hepatocytes, 1 μM compound, 37° C., up to 90 min, read-out: Metabolic stability in hepatocytes, in vitro t1/2, Human. The method in brief: (§2)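 Cryopreserved hepatocytes at 1.0×10^6 cells/ml in Williams medium E were incubated with 1 μM compound (final) at 37° C. Samples at 0, 5, 15, 30, 60 and 90 min were quenched with MeCN containing warfarin internal standard and analysed by LC-MS/MS.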

In a further data set the test system is Escherichia coli NDM-7. The data set is described as follows: Antibiotic susceptibility testing (MIC), EC NDM-7. Type of data set: cell-based. To be noted: agar or broth dilution (CLSI/EUCAST). As to the method:
(§3) Antibiotic susceptibility testing was performed using the agar or broth dilution method, in line with the Clinical and Laboratory Standards Institute (CLSI) and European Committee on Antimicrobial Susceptibility Testing (EUCAST) requirements.
(In general: In broth dilution the organism is exposed to a series of concentrations in liquid medium.)

Data set [2] is described as follows: Metabolic stability in mouse hepatocytes. Format: in vitro ADME. To be noted: cryopreserved mouse hepatocytes, 1 μM compound, 37° C., up to 90 min, read-out: Metabolic stability in hepatocytes, in vitro t1/2, Mouse. The method in brief:
as §2

Data set [3] has as its system Acinetobacter baumannii NDM-1. The data set is described as follows: Antibiotic susceptibility testing (MIC), AB NDM-1. Type of data set: cell-based. To be noted: agar or broth dilution (CLSI/EUCAST). As to the method:
as §3

For a further data set, the target named is NDM-1 (Klebsiella pneumoniae, UniProt C7C422). The data set is described as follows: MBL inhibition, FC-5 fluorescence assay, NDM-1. Format: biochemical. The note with it: FC-5 cephalosporin substrate, fluorescence; ranges of obtained pIC50; read-out: pIC50 NDM-1 (converted). The method in brief: as §1
A short description of data set [4]: Plasma protein binding, equilibrium dialysis, human plasma. Format: in vitro ADME. To be noted: pH 7.4, equilibrium dialysis (RED) 4 hours at 37° C., read-out: Plasma protein binding, fu, Human. The method in brief: (§4)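 Compound at 10 μM in plasma dialysed against 67 mM phosphate buffer pH 7.4 for 4 h at 37° C. in RED device; unbound fraction from buffer and plasma levels by LC-MS/MS. Plasma stability checked in parallel over 4 h at 37° C. versus frozen control.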
(Equilibrium dialysis compares concentrations on both sides of a semipermeable membrane.)

For another data set, the target named is IMP-1 (Serratia marcescens, UniProt P52699). The data set is described as follows: MBL inhibition, FC-5 fluorescence assay, IMP-1. Format: biochemical. To be noted: FC-5 cephalosporin substrate, fluorescence; ranges of obtained pIC50; read-out: pIC50 IMP-1 (converted). The method in brief: as §1
Data set [5] can be described thus: Plasma protein binding, equilibrium dialysis, mouse plasma. Type of data set: in vitro ADME. To be noted: pH 7.4, equilibrium dialysis (RED) 4 hours at 37° C., read-out: Plasma protein binding, fu, Mouse. The method in brief:
as §4

The subject of another data set is bacteria. In words: Thigh and/or septicaemia mouse model of infection, with meropenem. Format: in vivo. The note with it: NMRI mice; single dose with meropenem subcutaneous 1 h after inoculation; endpoint 3 h after treatment initiation. The method, then:
Female NMRI mice (5-6 weeks old, 26-30 gram, n=5) were rendered neutropenic via intraperitoneal injection of two doses of cyclophosphamide on day 4 and day 1 before infection. The animals were infected via intramuscular injection of an inoculum containing 10^6 CFU/mL of bacteria in the left thigh. The animals were treated with a single dose of meropenem subcutaneous +/− inhibitor 1 h after inoculation, and animals were either euthanised at the start of treatment or at the study endpoint at 3 h after treatment initiation. Clinical scores were monitored at 1 and 4 hours post inoculation and were in all cases mild or moderate. Thighs were aseptically removed from the animals, homogenised, diluted, and plated for incubation. Bacterial counting was performed after 18-22 h of incubation at 35° C. in ambient air.
Immunocompetent female NMRI mice mice (5-6 weeks old, 26-30 gram, n=5) were inoculated intraperitoneally with 0.5 ml inoculum containing 5×10^5 CFU suspended in 5% porcine mucin.
The animals were treated with a single dose of meropenem subcutaneous+/−metallo-b-lactamase inhibitor intravenous 1 h after inoculation. Animals were either euthanised at the start of treatment or at the study endpoint at 3 h after treatment initiation. Clinical scores were monitored at 1 and 4 hours post inoculation and were in all cases mild or moderate. Mice were anaesthetised anesthetized with a buprenorphine/tiletamine/zolazepam cocktail and bled, then euthanized and the peritoneum flushed with 2 ml sterile 0.9% NaCl and collected. The blood and/or peritoneal flush were serially diluted and plated for incubation. Bacterial counting was performed after 18-22 h of incubation at 35° C. in ambient air.

In another data set the test system is Escherichia coli NDM-1. In words: Antibiotic susceptibility testing (MIC), EC NDM-1. Type of data set: cell-based. The note with it: agar or broth dilution (CLSI/EUCAST). As to the method: as §3
For another data set, the target named is VIM-1 (Pseudomonas aeruginosa, UniProt A0A0F7KYQ8). In words: MBL inhibition, FC-5 fluorescence assay, VIM-1. Format: biochemical. To be noted: FC-5 cephalosporin substrate, ranges of obtained pIC50, read-out: pIC50 VIM-1 (converted). The method in brief:
as §1

Sequence of NDM-1 (C7C422 29-270, looked up, species assumed): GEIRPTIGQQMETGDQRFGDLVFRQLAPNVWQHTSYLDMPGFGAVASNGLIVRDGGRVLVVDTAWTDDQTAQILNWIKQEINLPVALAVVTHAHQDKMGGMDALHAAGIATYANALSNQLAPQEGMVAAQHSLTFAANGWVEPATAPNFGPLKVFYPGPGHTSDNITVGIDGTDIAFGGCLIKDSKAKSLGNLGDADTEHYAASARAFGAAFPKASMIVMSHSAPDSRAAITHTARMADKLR
Sequence of IMP-1 (P52699 19-246, looked up, species assumed): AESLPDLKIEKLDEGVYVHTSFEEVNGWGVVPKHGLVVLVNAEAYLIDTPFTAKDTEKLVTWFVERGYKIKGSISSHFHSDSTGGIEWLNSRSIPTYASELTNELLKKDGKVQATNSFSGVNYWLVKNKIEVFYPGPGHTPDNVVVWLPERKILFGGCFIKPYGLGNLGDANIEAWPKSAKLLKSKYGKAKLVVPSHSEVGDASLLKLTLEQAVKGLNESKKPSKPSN

In the case of `COc1cc(-c2c(C(=O)O)[nH]c3c([C@H](C)n4cc(CN5CC(N)C5)oc4=O)cccc23)ccn1` [IC-56, 7-[(1S)-1-{5-[(3-aminoazetidin-1-yl)methyl]-2-oxo-2,3-dihydro-1,3-oxazol-3-yl}ethyl]-3-(2-methoxypyridin-4-yl)-1H-indole-2-carboxylic acid], the IC50 was 0.1 to 1 nM at VIM-2, below 0.1 nM at NDM-1, above 10 nM on IMP-1 and above 10 nM at VIM-1. Also, the half-life at 1 μM in data set [1] was above 6.67 h; in [2], below 2.5 h. Moreover, in the data set on Escherichia coli NDM-7, the “MIC values EC NDM-7” value was “A (A = MIC values ≤ 1)”. The “MIC values AB NDM-1” value in data set [3] is “B (B MIC values 2 ÷ 8)”. The fraction unbound at 4 h, 10 μM in [4] was in the range of 0.05 to 0.25; in [5], 0.005 to 0.05. Further, the “Dose required to reduce minim 1 log fold CFU in a thigh and or a sepsis animal model” value in the data set with bacteria was “C (C = 5-10 mg/kg)”. Moreover, the “MIC values EC NDM-1” value in the data set on Escherichia coli NDM-1 was “A (A = MIC values ≤ 1)”.

As for `C[C@@H](c1cccc2c(-c3ccc(NS(C)(=O)=O)c(F)c3)c(C(=O)O)[nH]c12)n1cc(CN2CC(N)C2)oc1=O` [IC-57, 7-[(1S)-1-{5-[(3-Aminoazetidin-1-yl)methyl]-2-oxo-2,3-dihydro-1,3-oxazol-3-yl}ethyl]-3-(3-fluoro-4-methanesulfonamidophenyl)-1H-indole-2-carboxylic acid], the IC50 at VIM-2 is 0.1 to 1 nM; at NDM-1, below 0.1 nM; at IMP-1, above 10 nM; on VIM-1, 1 to 10 nM. Further, the half-life at 1 μM was 2.5 to 6.67 h in [1] and below 2.5 h in data set [2]. The “MIC values EC NDM-7” value against Escherichia coli NDM-7 is listed as “A (A = MIC values ≤ 1)”. Also, in [3], the “MIC values AB NDM-1” value is reported as “A (A = MIC values ≤ 1)”. The fraction unbound at 4 h, 10 μM in data set [4] lay in the range of 0.05 to 0.25; in data set [5] it was 0.005 to 0.05. The “Dose required to reduce minim 1 log fold CFU in a thigh and or a sepsis animal model” value in the data set with bacteria is “B (B = 30-10 mg/kg)”. Also, the “MIC values EC NDM-1” value against Escherichia coli NDM-1 was “A (A = MIC values ≤ 1)”.

For `C[C@@H](c1cccc2c(-c3ccc(CS(C)(=O)=O)c(F)c3)c(C(=O)O)[nH]c12)N1C[C@]2(C[C@@H](CN)C2)OC1=O` [IC-60, 7-((1S)-1-(2S,4r)-(2-(aminomethyl)-6-oxo-5-oxa-7-azaspiro[3.4]oct-7-yl)ethyl)-3-(3-fluoro-4-((methylsulfonyl)methyl)phenyl)-1H-indole-2-carboxylic acid], the IC50 on VIM-2 is 0.1 to 1 nM; at NDM-1 it was below 0.1 nM; at IMP-1 it was above 10 nM; on VIM-1, 0.1 to 1 nM. In addition, the half-life at 1 μM in data set [1] and in data set [2] was above 6.67 h each time. Moreover, the “MIC values EC NDM-7” value in the data set on Escherichia coli NDM-7 is listed as “A (A = MIC values ≤ 1)”. For the same compound, in data set [3], the “MIC values AB NDM-1” value is given as “A (A = MIC values ≤ 1)”. Besides, the fraction unbound at 4 h, 10 μM in data set [4] was above 0.25; in data set [5] it was 0.05 to 0.25. Moreover, the “Dose required to reduce minim 1 log fold CFU in a thigh and or a sepsis animal model” value in the data set with bacteria is listed as “C (C = 5-10 mg/kg)”. Besides, in the data set on Escherichia coli NDM-1, the “MIC values EC NDM-1” value is “A (A = MIC values ≤ 1)”.

`C[C@@H](c1cccc2c(-c3ccc(CS(C)(=O)=O)c(F)c3)c(C(=O)O)[nH]c12)N1C[C@]2(C[C@H](CN)C2)OC1=O` [IC-61, 7-((1S)-1-(2R,4s)-(2-(aminomethyl)-6-oxo-5-oxa-7-azaspiro[3.4]oct-7-yl)ethyl)-3-(3-fluoro-4-((methylsulfonyl)methyl)phenyl)-1H-indole-2-carboxylic acid]: the IC50 is below 0.1 nM on VIM-2, below 0.1 nM on NDM-1, 1 to 10 nM at IMP-1 and 0.1 to 1 nM on VIM-1. Moreover, the half-life at 1 μM in [1] and in data set [2] was above 6.67 h throughout. The “MIC values EC NDM-7” value in the data set with Escherichia coli NDM-7 was “A (A = MIC values ≤ 1)”. Also, the “MIC values AB NDM-1” value in data set [3] is reported as “B (B MIC values 2 ÷ 8)”. Also, the values for the fraction unbound at 4 h, 10 μM in [4] and in data set [5] were 0.05 to 0.25 and 0.005 to 0.05, respectively. Also, the “Dose required to reduce minim 1 log fold CFU in a thigh and or a sepsis animal model” value with bacteria is reported as “C (C = 5-10 mg/kg)”. For the same compound, the “MIC values EC NDM-1” value with Escherichia coli NDM-1 is “A (A = MIC values ≤ 1)”.
